The values below are quoted from earlier work in patent publication US20090142428A1, “Extracts from the Bark of Corynanthe Species and Use Thereof as Well as Medicaments, Dietetic Food Products and Pharmaceutical Preparations Containing Said Extracts” (DR. WILLMAR SCHWABE GMBH & CO. KG, priority 2005, published 2009).

The data set has as its system 5-α-reductase. As to conditions: uptake of finasteride.

Molecules are shown by their SMILES.

For `CC(C)(C)NC(=O)[C@H]1CC[C@H]2[C@@H]3CC[C@H]4NC(=O)C=C[C@]4(C)[C@H]3CC[C@]12C` [finasteride], the “reduction of the prostatic DHT concentration” value is “up to 85%”. The “average reduction of the prostate size” value (period of up to 12 months) is “about 20%”.
